Molecular target: T1, AT1 receptors (Homo sapiens, UniProt P30556)
T1 construct: host or cells: HEK293
T1 sequence (P30556 1-359): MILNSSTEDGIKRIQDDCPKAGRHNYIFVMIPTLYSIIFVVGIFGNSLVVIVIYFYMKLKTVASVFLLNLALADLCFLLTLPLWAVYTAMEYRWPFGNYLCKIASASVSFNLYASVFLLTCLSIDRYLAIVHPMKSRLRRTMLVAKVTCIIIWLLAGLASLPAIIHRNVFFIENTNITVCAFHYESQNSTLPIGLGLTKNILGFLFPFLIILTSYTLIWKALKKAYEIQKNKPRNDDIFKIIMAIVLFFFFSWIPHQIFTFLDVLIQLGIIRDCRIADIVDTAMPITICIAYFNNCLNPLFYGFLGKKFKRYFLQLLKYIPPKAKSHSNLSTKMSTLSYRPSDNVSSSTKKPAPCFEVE
Experiment: effect on calcium current in cells stably expressing AT1 receptors (HEK293-AT1, FLIPR, antagonist)
Format: cell-based
Settings: 11 concentration points 10 uM to 0.17 nM
From the text: Test example 1. Determination of the effect of the compounds of the present invention on calcium current in cells stably expressing AT1 receptors 1. Experimental objective: To test the antagonistic effect of compounds on HEK293-AT1 cell activity 2. Experimental instruments and reagents: 2.1 Instruments: • 384-well assay plate (Corning: 3764); • 384-well Echo compound plate (Labcyte: LP-0200); • 384-well compound plate (PE: 6008590); • Bravo Tip (Agilent: 10734-202); • FLIPR Tip (Molecular Device: 9000-0764); • Plate reader FLIPR Tetra (Molecular Device); • Pipetting workstation Bravo (Agilent); • ECHO 550 (LABCYTE); • Liquid injector Multidrop Combi (ThermoFisher). […] Experimental data processing method: FLIPR Tetra was used to read and collect the fluorescence signal value (RFU). The maximum RFU value was used to calculate the percent activation data based on the readings of the Low control (DMSO control) and High control (100 nM positive compound) experimental groups {% activation rate = (RFUsample - RFUlow control) / (RFUhigh control - RFUlow control)×100}. […]

SMILES | IC50 [nM]
CCCCC1=NC2(CCCC2)C(=O)N1Cc1ccc(-c2ccccc2S(=O)(=O)Nc2noc(C)c2Cl)c(COCC)c1 [Example 8, 2-[4-[(2-Butyl-4-oxo-1,3-diazaspiro[4.4]non-1-en-3-yl)methyl]-2-(ethoxymethyl)phenyl]-N-(4-chloro-5-methyl-isoxazol-3-yl)benzenesulfonamide] | 3.2
[2H]C([2H])(c1ccc(-c2ccccc2S(=O)(=O)Nc2noc(C)c2Cl)c(COCC)c1)N1C(=O)C2(CCCC2)N=C1CCCC [Example 2, 4'-((2-Butyl-4-oxo-1,3-diazaspiro[4.4]non-1-en-3-yl)methyl-d2)-N-(4-chloro-5-methylisoxazol-3-yl)-2'-(ethoxymethyl)-[1,1'-biphenyl]-2-sulfonamide] | 6.2
